This is an account of results in ChEMBL document CHEMBL1201862, “PubChem BioAssay data set” (2004).

What all share (test): growth of human tumour cells (NCI), 48 h
Assay [1] deals with LOX IMVI.
The test system of assay [2] is IGROV-1.
Assay [3] relates to PC-3.
Assay [4] concerns OVCAR-3.
The subject of assay [5] is SK-MEL-2.
The test system of assay [6] is UACC-257.
The test system of assay [7] is M14.
Assay [8] deals with CCRF-CEM.
For assay [9], the system named is MDA-MB-231.
The test system of assay [10] is NCI-H23.
Assay [11] has as its system Malme-3M.
Assay [12] relates to RPMI-8226.
For assay [13], the system named is HCT-116.
Assay [14] deals with ACHN.
In assay [15] the test system is SF-295.
Assay [16] concerns HCC 2998.
The test system of assay [17] is Hs-578T.
Assay [18] relates to T47D.
The test system of assay [19] is NCI-H460.
The test system of assay [20] is NCI/ADR-RES.

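Test compounds were applied to cells in 96-well plates for 48 hours at 5 doses. GI50 = concentration required for 50% inhibition of growth.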 Active and inactive are the calls of the source. Cut-off read from the data, not from the text of the source: active = GI50 up to about 1.1 µM and inactive = higher. Starred links: 1 amine or outer side, 2 acyl side, 3 side chain; linkers in the order of their positions; H or OH if unused. Positions of bridges follow the written chain, without caps; N, C: chain ends. Non-standard residues stand in square brackets, D forms with d. Residues, ends and D or L forms follow the SMILES beside them. ξ: configuration not given here. X37 = CC[C@H](C)[C@@H](N[*:1])[C@@H](O)CC(=O)O[C@H](C(=O)[C@H](C)C(=O)[*:2])C(C)C; NMeY = CN[C@@H](Cc1ccc(O)cc1)C(=O)O; dNMeL = CN[C@H](CC(C)C)C(=O)O; ξΔPro = O=C(O)C1C=CCN1

With `Cc1cc2c(cc1Cl)SC(NNC1=NCCN1)=NS2(=O)=O`, the GI50 in assay [1], in assay [2], in assay [3], in [4], in assay [5] and in assay [6] was > 10000 nM (inactive) throughout. Besides, the GI50 in [7], in assay [8], in assay [9], in [10], in assay [11] and in assay [12] was > 10000 nM (inactive) in each case. The GI50 in [13], in assay [14], in [15], in [16], in [17] and in [18] was > 10000 nM (inactive) throughout. The GI50 in assay [19] and in assay [20] was > 10000 nM (inactive) each time.

Take `CCOC(=O)CC[C@H](N)C(=O)N[C@H](Cc1ccc(N(CCCl)CCCl)cc1)C(=O)OCC`: the GI50 is 4610 nM (inactive) in assay [1]; 2710 nM (inactive) in assay [2]; 3630 nM (inactive) in [3]; 3590 nM (inactive) in assay [4]; 12300 nM (inactive) in [5]; 10000 nM (inactive) in assay [6]. Also, the GI50 is 1420 nM (inactive) in assay [7]; 1960 nM (inactive) in assay [8]; 6550 nM (inactive) in assay [9]; 857 nM (active) in [10]; 4940 nM (inactive) in [11]; 7060 nM (inactive) in assay [12]. Besides, the GI50 in [13] is 5780 nM (inactive); in assay [14], 70.6 nM (active); in assay [15], 3210 nM (inactive); in assay [16], 1200 nM (inactive); in assay [17] it was 2390 nM (inactive); in assay [18], 239 nM (active). Also, the values for the GI50 in assay [19] and in assay [20] were 1580 nM (inactive) and 4260 nM (inactive), respectively.

`O=C1c2ccccc2C(=O)c2c1ccc1conc21`: the GI50 in assay [1] was 469 nM (active); in [2] it was 2980 nM (inactive); in [3] it was 1480 nM (inactive); in assay [4], 296 nM (active); in assay [5] it was 3520 nM (inactive); in assay [6], 1980 nM (inactive). Besides, the GI50 was 2260 nM (inactive) in assay [7]; 1040 nM (active) in [8]; 221 nM (active) in assay [9]; 1360 nM (inactive) in [10]; 2480 nM (inactive) in assay [11]; 875 nM (active) in assay [12]. Further, the GI50 in assay [13] is 1520 nM (inactive); in [14] it was 1940 nM (inactive); in [15], 2650 nM (inactive); in assay [16] it was 15800 nM (inactive); in [17], 8930 nM (inactive); in assay [18] it was 398 nM (active). In addition, the GI50 in [19] was 5510 nM (inactive); in assay [20], 649 nM (active).

As for `CC[C@H](C)[C@H]1NC(=O)[C@@H](NC(=O)[C@@H](CC(C)C)N(C)C(=O)C2C=CCN2)[C@@H](C)OC(=O)[C@H](Cc2ccc(OC)cc2)N(C)C(=O)[C@@H]2CCCN2C(=O)[C@H](CC(C)C)NC(=O)[C@@H](C)C(=O)[C@H](C(C)C)OC(=O)C[C@@H]1O` (stereo not given in full) (H-[ξΔPro][dNMeL]T[X37]LP[NMeY](Me); ester 3-C), the GI50 in assay [1], in [2], in assay [3], in [4], in assay [5] and in assay [6] was < 5 nM (active) in each case. Besides, the GI50 in assay [7], in [8], in assay [9], in [10], in assay [11] and in [12] was < 5 nM (active) throughout. The GI50 in assay [13], in assay [14], in assay [15], in assay [16], in assay [17] and in [18] was < 5 nM (active) in each case. Besides, the results for the GI50 in assay [19] and in assay [20] were < 5 nM (active) and 61.7 nM (active), respectively.
